Experimental data: patent publication US20230145868A1, “UREA INHIBITORS OF MICRO-RNA” (Board of Regents, The University of Texas System, priority 2020, published 2023)

Tests used:
[1] = Microsomal stability assay, rat; assay type: in vitro ADME; conditions: 1 μM test compound, unit printed in b356 only
Experimental: The liver microsomal incubation mixture was composed of liver microsomes (with a concentration of 0.5 mg microsomal protein/ml), the test compound (1 μM), MgCl2 (3 mM), EDTA (1 mM) in potassium phosphate buffer (100 mM, pH 7.4). Control substrates used were Midazolam and Ketanserin. The reaction was initiated with the addition of an NADPH regeneration solution (1.3 mM NADPH) and maintained at 37° C. with shaking. At five sequential time points ranging from 0 to 45 min, aliquots of the mixture (50 μL) were removed and quenched with acetonitrile (100 μL) containing an internal standard control (imipramine) Samples were analyzed after vortexing and centrifugation by liquid chromatography-mass spectrometry (LC-MS/MS). The in vitro t1/2 was then calculated and clearance followed literature.

[2] = system: miR-16, miR-28, miR-182, miR-10a, miR-21, miR-155; experiment: RT-qPCR of other micro-RNAs (selectivity); assay type: cell-based, human; conditions: AGS and AsPC1 cell lines; normalized to U6
[3] = system: U251, LN229, AGS, AsPC1 cell lines; experiment: Cell viability IC50 dose-response curves; assay type: cell-based, human; conditions: majority of cell lines (U251, LN229, AGS, AsPC1); values not given
Experimental: IC50 dose-response curves were determined using the cell proliferation assay system. Briefly, 5,000 or 10,000 cells of each cell line were plated in 96-well microculture plates in replicates of either 4 or 6. When cells became adherent, either 5 or 10 sequentially decreasing doses of the small molecule miRNA inhibitor were diluted into new media and added to individual wells. After either 24 or 48 hours, of a tetrazolium salt such as MTS, MTT, or WST-8 was added to each well at the same time of day as treatment and incubated for either 2 or 3 h at 37° C. The OD, measuring at the appropriate wavelength for the dye, was read at on a microplate spectrophotometer.

[4] = system: U251 brain cancer cell line; experiment: Cell morphology; assay type: cell-based, human; conditions: over the course of 48 h
[5] = system: VEGF; experiment: Western blot, VEGF expression; assay type: cell-based, human; conditions: LN229 and U251 brain cancer cell lines
Experimental: Proteins are collected from cultured cells and lysed with 10× Lysis Buffer (Cell Signaling) freshly supplemented with a complete protease inhibitor cocktail and phosphatase inhibitors (Sigma). Bradford assay is used to measure protein concentration. Proteins are separated by polyacrylamide gel (Bio-rad) electrophoresis and were transferred to a 0.2 μm nitrocellulose membrane (Bio-rad). Quantification of protein expression was conducted using the image analysis software ImageJ.

[6] = system: miR-10b; experiment: qRT-PCR of miR-10b in cerebral organoids co-cultured with brain cancer cells; assay type: cell-based, human; conditions: 10 μM, 48 h
Description: For co-culturing with cerebral organoids, the brain cancer cell lines U251 and LN229 were transduced with an RFP lentiviral vector expressing mCherry and luciferase, and sorted twice via an Aria Influx Cell Sorter.
Human induced pluripotent stem cell (iPSC) derived cerebral organoids were obtained, courtesy of Dr. Sanjay Singh and Dr. Frederick Lang in the Department of Neurosurgery at MD Anderson Cancer Center. Organoids were maintained in a specialized neural based media on a shaker inside a 37° C. incubator. After maturation, organoids were moved to 24-well ultra-low attachment plates, and individually co-cultured with 5×10^5−1×10^6 cells from brain cancer cell lines for approximately 48-72 h, until RFP signal was clear on the surface of the organoid, indicating cell attachment. Organoids were then moved to 6 well plates and grouped into triplicates within the well. The treatment regimen of control, and 4 was started, at an analogous schedule to in vitro experiments. For fixation and embedding for in situ hybridization, the organoids were processed using 4% PFA and placed in OCT in −80° C. for sectioning.

[7] = rat, liver microsomes, pH 7.4, rat liver microsomes

Cc1ccc(F)c(NC(=O)Nc2ccc(-c3cccc4cn[nH]c34)cc2)c1 [Example 4, 1-(4-(1H-indazol-7-yl)phenyl)-3-(2-fluoro-5-methylphenyl)urea]
CLint ([1]; rat liver microsomes): 41.1 mL/min/kg
Half-life ([1]; rat liver microsomes): 1.01 h
CLint scaled at 1 μM [1, 7]: 41 mL/min/kg
half-life at 1 μM [1, 7]: 1 h
selectivity for miR-10b over other micro-RNAs [2]: selectivity of compound 4 for miR-10b becomes apparent
IC50 at 48 h compared with IC50 at 24 h [3]: lower than the corresponding IC50 value at 24 h
morphology of the cells [4]: significant change in the morphology
VEGF expression (Western blot) [5]: low to very slight variations
miR-10b levels (qRT-PCR) ([6]; cerebral organoids co-cultured with LN229): Significant downregulation of miR-10b
miR-10b levels (qRT-PCR) ([6]; cerebral organoids co-cultured with U251): Significant downregulation of miR-10b
